Laboratory results: patent US20120302516A1, “NANOPARTICLES FOR DRUG DELIVERY” (UNIVERSITY OF LOUISVILLE RESEARCH FOUNDATION, INC., priority 2009, published 2012)
Where a name gives a salt, the structure may show the parent alone.

Assays:
[1] = AEM field-mediated release of FITC conjugates from NP.(AO).FITC particles, supernatant fluorescence (HPLC); type: physicochemical; conditions: water, AEM field 201.4 A, 203 kHz, 30 minutes, after washes
Excerpt: The fluorophore FITC-CHO was attached to iron oxide nanoparticles by reaction with NP-bound aminooxy compounds (previously described compounds 6.1, 7.1 and the diol analog of 7.1) to show the influence of resident hydroxyl functionality on the binding and release properties of derived iron oxide formulations. Scheme E below depicts the fluorophore aldehyde and the three oxime ether conjugates selected for this study. Using the stepwise synthesis method, FITC-CHO was mixed with NP-AO particles derived from the three aminooxy compounds to give the NP.(AO).FITC fluorophore formulations. […] The relative binding and release properties were measured by fluorescence spectroscopy on the supernatant solutions after magnetic separation of the nanoparticles and/or NP.(AO).FITC particles.
Integration of the supernatant fluorescence after NP washing and after AEM field irradiation is indicative of the binding to the nanoparticles and the release of FITC into the supernatant. […]
To a suspension of the NP.AO (3 mg) in methanol at room temperature was added a solution of FITC-CHO in methanol (0.01M, 50 μL/mg of NP.AO). […] The particles then were magnetically separated, the supernatant was removed and analyzed. The particles were washed twice with methanol (3× reaction volume) and the supernatants collected each time and analyzed. […]

MCF-7 cells = assay: AEM field-induced drug release in MCF-7 cells; dead (floating) cells counted by hemocytometer after 48 h; type: cell-based, Human; conditions: AEM field exposure No, no Fe3O4, 0.3 mg Dox
Description: Breast cancer MCF-7 cells were treated with the resultant Dox-NP formulations, and the treated cells then were either allowed to incubate or briefly exposed to an AEM field to induce drug release from the Dox-NP formulations.
AEM field study. Results of MCF-7 cells treated with nanoparticle-doxorubicin formulations followed by alternating electromagnetic (AEM) field exposure (15 mins, 350 A, 203 KHz) were obtained. Cells plated in 30 mm dishes were treated with NP formulations at a 0.5 mg Fe3O4 dose unless otherwise specified. Doxorubicin loadings per mg NP formulation were as follows: dNP.AO.Dox (0.64 mg Dox/mg), sNP.AO.Dox (0.43 mg Dox/mg), NP.Dox (0.05 mg Dox/mg). […]
Cell culture toxicity study. Human breast cancer cells (MCF-7) were purchased from American Type Culture Collection (VA, USA). Cells were plated in 30 mm dishes at ˜4˜10^5 cells/dish, and then grown up to 50-60% confluency in DMEM, 1% Pennstrep (Mediatech, Inc, VA) and 10% FBS (Valley Biomedical, Winchester, Va.).
Alternating electromagnetic field-induced drug release in MCF-7 cells. […]
Each measured amount of NP formulation was diluted to 2 mL by adding DMEM containing 10% FBS. […]

SMILES | release into supernatant (fluorescence) after AEM field exposure [1] | MCF-7 cell death, extent (major/minor) (MCF-7 cells; continuation line of the cell death cell) | MCF-7 cell death (MCF-7 cells; relative to 'cells only' control, 48 h)
O=CCCCNC(=S)Nc1ccc(-c2c3ccc(=O)cc-3oc3cc(O)ccc23)c(C(=O)O)c1 [FITC-CHO] | no recovery of fluorescence after exposure to an AEM field | – | –
C[N+](CCO)(CCO)CCO/N=C/CCCNC(=S)Nc1ccc(-c2c3ccc(=O)cc-3oc3cc(O)ccc23)c(C(=O)O)c1 [FITC-III] | considerable FITC-conjugate is released into solution | – | –
COc1cccc2c1C(=O)c1c(O)c3c(c(O)c1C2=O)C[C@@](O)(C(=O)CO)C[C@@H]3O[C@H]1C[C@H](N)[C@H](O)[C@H](C)O1 [Dox, doxorubicin.HCl] | – | (major) | Yes
